# Assay results from patent US10173991B2, “Sulfone amide linked benzothiazole inhibitors of endothelial lipase” (BRISTOL-MYERS SQUIBB COMPANY, priority 2014, dated 2019).
# Molecular target: Endothelial lipase (EL) (Homo sapiens (Human), UniProt Q9Y5X9)
# Assay: Endothelial lipase (EL) enzymatic assay with fluorescent substrate A10070 in DMPG vesicles
# Assay type: biochemical
# Conditions: not given
# Outline: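 EL from conditioned medium of HT-1080 cells engineered to overexpress endogenous EL; HL partially purified from conditioned medium of HL-overexpressing COS cells. Enzyme preincubated with compound 30 min at 37° C in 50 mM HEPES pH 8.0, 50 mM NaCl, 1 mM CaCl2; DMPG vesicles carrying FRET substrate (0.11 mole fraction) then added.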
# Chain of Endothelial lipase (EL) (Q9Y5X9 21-500): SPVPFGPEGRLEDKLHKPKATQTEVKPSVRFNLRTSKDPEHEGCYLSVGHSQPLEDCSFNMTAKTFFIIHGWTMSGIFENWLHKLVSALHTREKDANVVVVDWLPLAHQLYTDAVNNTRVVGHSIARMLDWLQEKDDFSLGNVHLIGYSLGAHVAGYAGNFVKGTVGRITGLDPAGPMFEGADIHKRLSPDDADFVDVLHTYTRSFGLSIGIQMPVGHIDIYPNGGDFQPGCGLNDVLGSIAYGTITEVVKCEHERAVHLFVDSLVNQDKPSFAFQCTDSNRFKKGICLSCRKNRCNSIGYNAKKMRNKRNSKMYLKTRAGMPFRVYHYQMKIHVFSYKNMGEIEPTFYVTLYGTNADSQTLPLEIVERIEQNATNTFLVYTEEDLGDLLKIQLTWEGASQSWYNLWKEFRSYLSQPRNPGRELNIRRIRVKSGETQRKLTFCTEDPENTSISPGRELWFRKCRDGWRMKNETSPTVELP
row,IC50 [nM],Structure (SMILES)
1,4,"CC(C)S(=O)(=O)C(C(=O)NCC(=O)NC1CC1)c1nc2cc(F)c(-c3ccc4c(=O)n(C)ccc4c3)cc2s1 (stereo not drawn) [Example 242, N-[(cyclopropyl-carbamoyl)methyl]-2-[5-fluoro-6-(2-methyl-1-oxo-1,2-dihydro-isoquinolin-6-yl)-1,3-benzothiazol-2-yl]-2-(propane-2-sulfonyl) acetamide]"
2,12,"COCCS(=O)(=O)C(C(=O)NCC(=O)NC1CC1)c1nc2cc(F)c(-c3ccc(C4CC4)nc3)cc2s1 (stereo not drawn) [Example 159, N-[(cyclopropyl-carbamoyl)methyl]-2-[6-(6-cyclopropyl-pyridin-3-yl)-5-fluoro-1,3-benzothiazol-2-yl]-2-(2-methoxyethane-sulfonyl) acetamide]"
3,23,"O=C(CNC(=O)C(c1nc2c(F)cc(-c3ccc(F)nc3)cc2s1)S(=O)(=O)c1ccc(F)cc1)NC1CC1 (stereo not drawn) [Example 472, N-[(cyclopropyl-carbamoyl)methyl]-2-[4-fluoro-6-(6-fluoropyridin-3-yl)-1,3-benzothiazol-2-yl]-2-(4-fluorobenzene-sulfonyl)acetamide]"
4,61,"COCCS(=O)(=O)C(C(=O)NCC(=O)NC1CC1)c1nc2c(F)cc(-c3cncnc3)cc2s1 (stereo not drawn) [Example 221, N-[(cyclopropyl-carbamoyl)methyl]-2-[4-fluoro-6-(pyrimidin-5-yl)-1,3-benzothiazol-2-yl]-2-(2-methoxyethane-sulfonyl) acetamide]"
5,42,"COCCS(=O)(=O)C(C(=O)NCC(=O)NC1CC1)c1nc2cc(-c3ccc(COC)cc3)ccc2s1 (stereo not drawn) [Example 338, N-[(cyclopropyl-carbamoyl)methyl]-2-(2-methoxyethane-sulfonyl)-2-{5-[4-(methoxymethyl)phenyl]-1,3-benzothiazol-2-yl}acetamide]"
6,36,"CS(=O)(=O)C(C(=O)NCC(=O)NC1CC1)c1nc2cc(-c3ccc4c(c3)NC(=O)C4)c(F)cc2s1 (stereo not drawn) [Example 365, N-[(cyclopropyl-carbamoyl)methyl]-2-[6-fluoro-5-(2-oxo-2,3-dihydro-1H-indol-6-yl)-1,3-benzothiazol-2-yl]-2-methanesulfonyl-acetamide]"
7,20,"CS(=O)(=O)C(C(=O)NCC(=O)NC1CC1)c1nc2ccc(-c3ccc(=O)n(-c4ccccc4)c3)cc2s1 (stereo not drawn) [Example 583, N-[(cyclopropyl-carbamoyl)methyl]-2-methanesulfonyl-2-[6-(6-oxo-1-phenyl-1,6-dihydropyridin-3-yl)-1,3-benzothiazol-2-yl]acetamide]"
8,3,"Cc1cc2nc(C(C(=O)NCC(=O)NC3CC3)S(=O)(=O)C(C)C)sc2cc1-c1ccc2c(=O)n(C)ccc2c1 (stereo not drawn) [Example 256, N-[(cyclopropyl-carbamoyl)methyl]-2-[5-methyl-6-(2-methyl-1-oxo-1,2-dihydro-isoquinolin-6-yl)-1,3-benzothiazol-2-yl]-2-(propane-2-sulfonyl) acetamide]"
9,39,"COCCS(=O)(=O)C(C(=O)NCC(=O)NC1CC1)c1nc2cc(-c3cncnc3)c(C)cc2s1 (stereo not drawn) [Example 183, N-[(cyclopropyl-carbamoyl)methyl]-2-(2-methoxyethane-sulfonyl)-2-[6-methyl-5-(pyrimidin-5-yl)-1,3-benzothiazol-2-yl]acetamide]"
10,59,"COCCS(=O)(=O)C(C(=O)NCC(=O)NCC1CC1)c1nc2cc(-c3ccc(F)nc3)ccc2s1 (stereo not drawn) [Example 389, N-{[(cyclopropyl-methyl)carbamoyl]methyl}-2-[5-(6-fluoropyridin-3-yl)-1,3-benzothiazol-2-yl]-2-(2-methoxyethane-sulfonyl)acetamide]"
11,33,"Cc1cccc(S(=O)(=O)C(C(=O)NCC(=O)NC2CC2)c2nc3cc(-c4ccc(F)nc4)ccc3s2)c1 (stereo not drawn) [Example 438, N-[(cyclopropyl-carbamoyl)methyl]-2-[5-(6-fluoropyridin-3-yl)-1,3-benzothiazol-2-yl]-2-(3-methylbenzene-sulfonyl)acetamide]"
12,3,"N#Cc1cccc(COC(=O)Nc2ccc(-c3cc4sc(C(C(=O)NCC(=O)NC5CC5)S(=O)(=O)C5CC5)nc4cc3F)cc2)c1 (stereo not drawn) [Example 521, (3-cyanophenyl) methyl N-(4-{2-[(cyclopropane-sulfonyl) ({[(cyclopropyl-carbamoyl)methyl]carbamoyl}methyl]-5-fluoro-1,3-benzothiazol-6-yl}phenyl) carbamate]"
13,10,"COCCS(=O)(=O)C(C(=O)NCC(=O)NC1CC1)c1nc2cc(-c3cnc(C4CC4)nc3)c(F)cc2s1 (stereo not drawn) [Example 348, N-[(cyclopropyl-carbamoyl)methyl]-2-[5-(2-cyclopropyl-pyrimidin-5-yl)-6-fluoro-1,3-benzothiazol-2-yl]-2-(2-methoxyethane-sulfonyl)acetamide]"
14,51,"O=C(CNC(=O)C(c1nc2c(F)cc(-c3cnc(C4CC4)nc3)cc2s1)S(=O)(=O)c1ccc(F)cc1)NC1CC1 (stereo not drawn) [Example 476, N-[(cyclopropyl-carbamoyl)methyl]-2-[6-(2-cyclopropyl-pyrimidin-5-yl)-4-fluoro-1,3-benzothiazol-2-yl]-2-(4-fluorobenzene-sulfonyl)acetamide]"
15,8,"O=C(CNC(=O)C(c1nc2cc(F)c(-c3ccc4c(c3)CCCN4C(=O)Cc3c(F)cccc3F)cc2s1)S(=O)(=O)CCC(F)(F)F)NC1CC1 (stereo not drawn) [Example 590, N-[(cyclopropyl-carbamoyl)methyl]-2-(6-{1-[2-(2,6-difluorophenyl)acetyl]-1,2,3,4-tetrahydroquinolin-6-yl}-5-fluoro-1,3-benzothiazol-2-yl)-2-(3,3,3-trifluoropropane-sulfonyl)acetamide]"
16,32,"COCCS(=O)(=O)C(C(=O)NCC(=O)NC1CC1)c1nc2cc(C(F)(F)F)c(-c3ccc(F)nc3)cc2s1 (stereo not drawn) [Example 173, N-[(cyclopropyl-carbamoyl)methyl]-2-[6-(6-fluoropyridin-3-yl)-5-(trifluoromethyl)-1,3-benzothiazol-2-yl]-2-(2-methoxyethane-sulfonyl) acetamide]"
17,12,"Cc1ccc(-c2cc3sc(C(C(=O)NCC(=O)NC4CC4)S(=O)(=O)C(C)C)nc3cc2F)cn1 (stereo not drawn) [Example 246, N-[(cyclopropyl-carbamoyl)methyl]-2-[5-fluoro-6-(6-methylpyridin-3-yl)-1,3-benzothiazol-2-yl]-2-(propane-2-sulfonyl)acetamide]"
18,192,"Cc1cc(-c2cc3sc(C(C(=O)NCC(=O)NC4CC4)S(=O)(=O)C(C)C)nc3cc2F)cnn1 (stereo not drawn) [Example 240, N-[(cyclopropylcarbamoyl)methyl]-2-[5-fluoro-6-(6-methylpyridazin-4-yl)-1,3-benzothiazol-2-yl]-2-(propane-2-sulfonyl) acetamide]"
19,2,"COCCS(=O)(=O)C(C(=O)NCC(=O)NC1CC1)c1nc2cc(C)c(-c3ccc4[nH]c(=O)ccc4c3)cc2s1 (stereo not drawn) [Example 151, N-[(cyclopropyl-carbamoyl)methyl]-2-(2-methoxyethane-sulfonyl)-2-[5-methyl-6-(2-oxo-1,2-dihydroquinolin-6-yl)-1,3-benzothiazol-2-yl]acetamide]"
20,3,"CS(=O)(=O)C(C(=O)NCC(=O)NC1CC1)c1nc2cc(F)c(-c3cccc(Cl)c3)cc2s1 (stereo not drawn) [Example 39, 2-[6-(3-chlorophenyl)-5-fluoro-1,3-benzothiazol-2-yl]-N-[(cyclopropyl-carbamoyl)methyl]-2-methanesulfonyl-acetamide]"
21,25,"COCCS(=O)(=O)C(C(=O)NCC(=O)NC1CC1)c1nc2cc(-c3ccc(N4CCCC4)nc3)ccc2s1 (stereo not drawn) [Example 71, N-[(cyclopropyl-carbamoyl)methyl]-2-(2-methoxyethane-sulfonyl)-2-{5-[6-(pyaolidin-1-yl)pyridin-3-yl]-1,3-benzothiazol-2-yl} acetamide]"
22,2,"O=C(CNC(=O)C(c1nc2cc(F)c(-c3ccc(NC(=O)OCc4ccccn4)cc3)cc2s1)S(=O)(=O)CCC(F)(F)F)NC1CC1 (stereo not drawn) [Example 520, pyridin-2-ylmethyl N-{4-[2-({[(cyclopropyl-carbamoyl)methyl]carbamoyl}(3,3,3-trifluoropropane-sulfonyl)methyl)-5-fluoro-1,3-benzothiazol-6-yl]phenyl}carbamate]"
23,13,"CC(C)S(=O)(=O)C(C(=O)NCC(=O)NC1CC1)c1nc2cc(-c3ccc(F)nc3)c(F)cc2s1 (stereo not drawn) [Example 263, N-[(cyclopropyl-carbamoyl)methyl]-2-[6-fluoro-5-(6-fluoropyridin-3-yl)-1,3-benzothiazol-2-yl]-2-(propane-2-sulfonyl)acetamide]"
24,12,"O=C(CNC(=O)C(c1nc2cc(-c3cncnc3)ccc2s1)S(=O)(=O)c1ccccc1)NC1CC1 (stereo not drawn) [Example 435, 2-(benzenesulfonyl)-N-[(cyclopropyl-carbamoyl)methyl]-2-[5-(pyrimidin-5-yl)-1,3-benzothiazol-2-yl]acetamide]"
25,43,"COCCS(=O)(=O)C(C(=O)NCC(=O)NC1CC1)c1nc2c(F)cc(-c3ccc(F)nc3)cc2s1 (stereo not drawn) [Example 514, N-[(cyclopropyl-carbamoyl)methyl]-2-[4-fluoro-6-(6-fluoropyridin-3-yl)-1,3-benzothiazol-2-yl]-2-(2-methoxyethane-sulfonyl)acetamide]"

# Same assay, conditions: EL from conditioned media of HT-1080 cells; 30 min preincubation at 37° C.
row,IC50 [nM],Structure (SMILES)
1,3,"CS(=O)(=O)C(C(=O)NCC(=O)NC1CC1)c1nc2cc(F)c(-c3ccc(NC(=O)OCc4ccccc4)cc3)cc2s1 (stereo not drawn) [Example 1, Benzyl N-{4-[2-({[(cyclopropylcarbamoyl)methyl]carbamoyl}(methanesulfonyl)methyl)-5-fluoro-1,3-benzothiazol-6-yl]phenyl}carbamate]"

# Same assay, conditions: reference compounds; EL from conditioned media of HT-1080 cells; 30 min preincubation at 37° C.
row,IC50 [nM],Structure (SMILES)
1,> 62000,"CC(C)c1cc(CNC(=O)C(C)(C)c2nc3ccc(-c4ccccc4)cc3s2)on1 [Reference 2, N-((3-Isopropylisoxazol-5-yl)methyl)-2-methyl-2-(6-phenylbenzo[d]thiazol-2-yl)propanamide, reference compound]"
